Assay results from US5705170A, “Herbal cellulite treatments” (priority 1995, dated 1998).

Key:
[1] = test system: isolated adipocytes (adipocyte α2-receptors); experiment: Inhibition of adipocyte lipid synthesis (lipogenesis); type: cell-based
Description: The results obtained are reported below in Table 2.

[2] = test system: adipocytes isolated from the thigh area of volunteers (adipocyte β receptors); experiment: Lipolysis stimulation by glycerin release in isolated adipocytes; type: cell-based, human; details: for Concentration at maximum stimulation: lipolysis; for Emax: Homo sapiens, Adipocyte, read-out: Maximum stimulation (lipolysis)
Procedure: Glycerin release was used as a parameter to quantify lipolysis in actively metabolism adipocytes isolated from the thigh area of volunteers and evaluate various ingredients for their ability to stimulate adipocyte β receptors. Refined, or purified Malvaceae extracts comprising preferred aqueous or lipophilic fractions as described above, and some known β-adrenergic stimulators used in anticellulite treatments, namely the xanthines aminophylline, caffeine and theophylline, were tested. Also tested, for comparative purposes, were a crude Hibiscus Abelmoschus extract and a herbal ingredient that has been used in anticellulite compositions, ivy extract.

[3] = test system: cAMP; experiment: cAMP level (elevation of cAMP); type: cell-based, human
[4] = glycerin release, most effective concentration

| Structure (SMILES) | Lipogenesis inhibition (in words) [1] | Maximum inhibition of adipocyte fat [1] | Maximum stimulation (lipolysis) [2, 4] [%] | Concentration at maximum stimulation [2] [mg/mL] | Elevation of cAMP [3] | Emax [2, 4] [%] |
| --- | --- | --- | --- | --- | --- | --- |
| Cn1c(=O)c2[nH]cnc2n(C)c1=O [aminophylline] | No lipogenesis inhibition activity | none | 54.0 | 1.00 | ns |  |
| Cn1c(=O)c2c(ncn2C)n(C)c1=O [caffeine] |  |  |  | 2.00 | ns | 51 |
| Cn1c(=O)c2[nH]cnc2n(C)c1=O [theophylline] | No lipogenesis inhibition activity | none |  | 1.00 | ns | 45 |
